Literature values as cited in US20240377378A1, “TRACER METHODS FOR THE DETERMINATION OF SORBENT CONTENT IN SOILS” (Regenesis Bioremediation Products, priority 2023, published 2024).

Legend:
[1] = under normal conditions (Congo Red: normal or ambient conditions)
[2] = water
[3] = 2012 OSHA Hazard Communication Standard

Nc1c(/N=N/c2ccc(-c3ccc(/N=N/c4cc(S(=O)(=O)O)c5ccccc5c4N)cc3)cc2)cc(S(=O)(=O)O)c2ccccc12 [Congo Red]
Chemical Stability [1]: Stable under | Solubility [2]: 25 to 116 mg/mL | carcinogenicity hazard category [3]: (Category 1B), | reproductive toxicity hazard category [3]: (Category 2)

O=S(=O)(O)c1cc(S(=O)(=O)O)c2c(/N=N/c3ccccc3)c(O)ccc2c1 [Orange G]
Chemical Stability [1]: Stable under | pKa: 11.5 | Solubility [2]: 50 to 100 mg/mL | Solubility (in words) [2]: soluble in water | Hazard Identification: criteria for hazardous classification [3]: Does not meet

CCN(CC)c1ccc2c(-c3ccccc3C(=O)O)c3ccc(=[N+](CC)CC)cc-3oc2c1.[Cl-] [Rhodamine B]
Chemical Stability [1]: Stable under | pKa: 3.1-3.22 | Serious eye damage/eye irritation hazard category [3]: (Category 1) | acute oral toxicity hazard category [3]: (Category 4),
